Laboratory results reported in US20250210194A1, “METHODS AND SYSTEMS FOR D[…] HETEROGENEITY” (Foundation Medicine, Inc., priority 2022, published 2025).

Test system: EGFR driver alteration-positive NSCLC patients
Assay: Progression free survival (PFS) from start of 1st line Osimertinib in a real-world NSCLC patient cohort (Kaplan Meier)
Assay type: in vivo, human
Details: for median progression free survival (mPFS): 45 patients, 1st line Osimertinib
From the text: Starting with a patient cohort of 15,035 patients, the data was filtered (for biopsy type and bait set). The data was then filtered to exclude data for patients for whom a computational tumor purity was less than or equal to 20% or for whom a computational tumor purity value was missing. The remaining patient data was divided according to whether the samples were early-stage specimens, late-stage specimens, or of ambiguous origin. For the late-stage specimens, data for patients who were first diagnosed prior to Jan. […] Finally, data was selected for N=135 1st line Osimertinib-treated, EGFR driver alteration-positive NSCLC patients for whom tumor samples were sequenced at most a year prior to start of therapy.
The group of 135 patients were then divided into three tertiles with 45 patients each. Progression free survival (PFS) from start of 1st line Osimertinib was determined as follows: • Index state was the start of 1st line therapy. • Progression date: for patients who received a subsequent line of therapy, the event date was the earliest progression event that occurred more than 14 days after the index date, or date of death, provided that the progression event or date of death occurred before the start date of the subsequent line of therapy plus 14 days. For patients without a subsequent line of therapy, the event date was the earliest progression event that occurred more than 14 days after the index date, or the date of death. • Censor date: patients with a subsequent line of therapy were censored at their last clinic note date if it occurred between the index date and the start date of the subsequent line of therapy plus 14 days. Patients for whom the last clinic note date was not available within this window were censored at their last date of confirmed structured activity (i.e., the last available visit date within the Visit Table) within this time window. Patients without a subsequent line of therapy were censored at their last clinic note date.

C=CC(=O)Nc1cc(Nc2nccc(-c3cn(C)c4ccccc34)n2)c(OC)cc1N(C)CCN(C)C [Osimertinib]
median progression free survival (mPFS) (first tertile (lowest tumor heterogeneity score)): 16.5 months
median PFS (high score group: tumor heterogeneity score >=1, 1st line Osimertinib): 10.8 months
median PFS (low score group: tumor heterogeneity score <1, 1st line Osimertinib): 16.0 months
mPFS (score category High (THS >=1), EGFR CCF category High (CCF >=0.5), N=74): 11.11
mPFS (score category High (THS >=1), EGFR CCF category Low (CCF <0.5), N=12): 6.54 months
mPFS (score category Low (THS <1), EGFR CCF category High (CCF >=0.5), N=39): 16.01 months
median progression free survival (mPFS) (second tertile (intermediate tumor heterogeneity score)): 10.5 months
median progression free survival (mPFS) (third tertile (highest tumor heterogeneity score)): 11.9 months
Median progression free survival (mPFS) from start of 1st line Osimertinib (whole cohort, N=135 EGFR driver alteration-positive NSCLC patients): 12.7 months
